pIC50: −log10 of the molar value.
Legend:
[1] = target: T1, Isocitrate dehydrogenase [NADP], mitochondrial (Homo sapiens, UniProt P48735); assay: Inhibition of IDH2 R140Q mutant (unknown origin) assessed as reduction in NADPH consumption using alpha-KG as substrate incubated for 60 mins by diaphorase and resazurin dye based assay
T1 sequence (P48735 whole entry): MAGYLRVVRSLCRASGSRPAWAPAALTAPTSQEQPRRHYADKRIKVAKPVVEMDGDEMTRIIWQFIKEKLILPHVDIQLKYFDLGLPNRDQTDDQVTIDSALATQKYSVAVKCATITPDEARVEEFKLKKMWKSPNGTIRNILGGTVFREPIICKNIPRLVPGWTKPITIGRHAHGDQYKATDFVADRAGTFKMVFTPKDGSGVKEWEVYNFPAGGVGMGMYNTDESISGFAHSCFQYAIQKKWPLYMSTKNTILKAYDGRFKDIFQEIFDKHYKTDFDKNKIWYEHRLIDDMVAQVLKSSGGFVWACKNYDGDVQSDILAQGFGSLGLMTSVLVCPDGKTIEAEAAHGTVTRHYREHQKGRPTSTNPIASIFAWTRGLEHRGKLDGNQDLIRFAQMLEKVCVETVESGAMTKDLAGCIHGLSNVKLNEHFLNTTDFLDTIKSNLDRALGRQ

[2] = target: T2, Isocitrate dehydrogenase [NADP] cytoplasmic (Homo sapiens, UniProt O75874); assay: Inhibition of IDH1 R132H mutant (unknown origin) assessed as reduction in NADPH consumption using alpha-KG as substrate incubated for 60 mins by diaphorase and resazurin dye based assay
Target sequence in this assay (O75874 2-414 R132H limits assumed): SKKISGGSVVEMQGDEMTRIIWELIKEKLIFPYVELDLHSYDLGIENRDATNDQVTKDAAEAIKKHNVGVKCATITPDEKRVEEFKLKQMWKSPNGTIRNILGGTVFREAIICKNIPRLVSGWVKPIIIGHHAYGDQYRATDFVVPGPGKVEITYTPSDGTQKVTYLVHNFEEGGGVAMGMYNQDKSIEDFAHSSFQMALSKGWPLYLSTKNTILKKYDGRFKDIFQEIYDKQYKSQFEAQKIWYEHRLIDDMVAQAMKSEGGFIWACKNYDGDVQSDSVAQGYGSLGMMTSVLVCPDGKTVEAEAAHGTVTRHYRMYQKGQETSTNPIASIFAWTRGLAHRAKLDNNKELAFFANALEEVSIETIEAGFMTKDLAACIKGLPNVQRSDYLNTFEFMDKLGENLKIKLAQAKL

[3] = target: T2, Isocitrate dehydrogenase [NADP] cytoplasmic; assay: Inhibition of IDH1 R132C mutant (unknown origin) assessed as reduction in NADPH consumption using alpha-KG as substrate incubated for 60 mins by diaphorase and resazurin dye based assay
Target sequence in this assay (O75874 2-414 R132C limits assumed): as the sequence (O75874 2-414 R132H limits assumed) above, with H131C counted along it

Measured: pIC50

CC(F)(F)c1cccc(-c2nc(NC3CCC(F)(F)C3)nc(NC3CCC(F)(F)C3)n2)n1 (configuration not stated) [US10028961, Compound 105]
> 7.30: all assays above

C[C@@H](Nc1nc(N[C@H](C)C2CC2)nc(-n2ccc(C(F)(F)F)n2)n1)C1CC1 [US10028961, Compound 121]
> 7.30: all assays above

FC1(F)CC(Nc2nc(NC3CC(F)(F)C3)nc(-c3nc(C(F)(F)F)cs3)n2)C1 [US10028961, Compound 128]
> 7.30: all assays above

FC1(F)CCC(Nc2nc(NC3CCC(F)(F)CC3)nc(-c3cncc(C(F)(F)F)n3)n2)CC1 [US10028961, Compound 160]
> 7.30: all assays above
